Experimental data published in patent US8466162B2, “5-alkynyl-pyridines” (Boehringer Ingelheim International GmbH, priority 2011, dated 2013).

Tests used:
[1] = tested on: MCF7 cells; assay: alamarBlue MCF7 cell assay (antiproliferative/cytotoxicity); type: cell-based; conditions: MCF7 human breast cancer cell line
In short: (§1)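 EC50 values reflect antiproliferative or cytotoxic effect, taken from fluorometric alamarBlue signal (excitation 530-560 nm, emission 590 nm) corrected for a medium blank. Exposure lasted 5-6 days at concentrations up to 10 μM final.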

[2] = tested on: MB453 cells; assay: alamarBlue MB453 cell assay (antiproliferative/cytotoxicity); type: cell-based; conditions: Homo sapiens; MDA MB 453 breast cancer cell line
In short: as §1

[3] = tested on: U87 cells; assay: alamarBlue U87 cell assay (antiproliferative/cytotoxicity); type: cell-based; conditions: U-87MG human glioblastoma cells
Excerpt: The H460, MB453, U87, MCF7 and BT474 alamarBlue cell assays provide EC50 values indicative of the antiproliferative or cytotoxic effects of the compounds to respectively the H460 (human non small cell line cancer), MB-453 (breast cancer cell line), U87 (glioblastoma cell line), MCF7 (breast cancer cell line) and BT474 (breast cancer cell line). As known in the field, antiproliferative or cytotoxic effect against this cell lines would be expected to be indicative of activity in treating lung, breast and brain cancers. See R. Marone R et al. Biochim. Biophys. Acta. 2008 January; 1784(1):159-85. S. Yaguchi et al., J. Natl. Cancer Inst. 2006 Apr. 19; 98(8):545-56.
Method Type: Antiproliferative/Cytotoxicity
alamarBlue® is designed to provide a rapid and sensitive measure of cell proliferation and cytotoxicity in various human and animal cell lines. The assay is based on the reduction of alamarBlue in the reducing environment of living (metabolically active) cells. In the presence of added cytotoxic or antiproliferative compounds, the innate metabolic activity ceases.
AlamarBlue is soluble and stable in culture medium. Measurements are made fluorometrically by exciting at 530-560 nm and measuring emission at 590 nm. In reporting percent alamarBlue reduction by monitoring fluorescence, data are expressed as fluorescence emission intensity units as a function of time of incubation.
3. Equipment • 96-well plates, flat bottom (Falcon, Cat. No.: 353072) • 96-well plates, U-shaped (Costar, Cat. No.: 3799) • CO2-Incubator • Microplate Reader, Spectramax Plus, Molecular Devices 4. Typical Procedure • Day 0: Seed 3000 BT-474 cells (IMDM/5% FCS, 1% NEAA, 1% Sodiumpyruvat) in 150 μl medium into a 96-well plate, flat bottom (include mediumblank). Incubate plates at 37° C. in a CO2 incubator overnight. • Day 1: Dilute compounds to a concentration 40 μM ->1:3 in medium, 10 dilution steps, in 96-well plates. • Add 50 μl per well of each dilution (total volume per well 200 μl; final conc. of cpds: 10 μM ->1:3). If required, test further dilutions. • All concentrations are tested in duplicates. • Controls: Cells w/o cpd. (+50 μl medium/DMSO). • Cells are incubated with compounds for 5-6 days. • Day 6 or 7: Add 25 μl of alamarBlue solution to each well and incubate for 8 hours at 37° C. Measure fluorescence by exciting at 530-560 nm and measuring emission at 590 nm 5. Evaluation • Subtract average value for medium blank from sample readings • Calculate EC50 using GraphPad Prism (Fifty)

[4] = target: T1, PI3Kalpha (Homo sapiens, UniProt P42336); assay: Inhibition of PI3Kalpha-induced PIP-2 phosphorylation (filter-binding assay, 33P-ATP); type: biochemical; conditions: PI3 Kinase alpha (p85alpha/His-p110alpha), 1 μM ATP; read-out: IC50 PI3Kα
T1 construct: His (N); made in house; host or cells: SF9 insect cells (baculovirus co-infection)

[5] = tested on: H460 cells; assay: alamarBlue H460 cell assay (antiproliferative/cytotoxicity); type: cell-based; conditions: NCI-H460; H460 human lung carcinoma cells
In short: as §1

[6] = tested on: BT474 cells; assay: alamarBlue BT474 cell assay (antiproliferative/cytotoxicity); type: cell-based; conditions: BT-474 human breast cancer cell line, 5-6 days incubation
In short: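 After overnight plating of 3000 cells per well, compounds are applied as ten threefold dilutions (highest final 10 μM) in duplicate for 5-6 days. Viability is then gauged by an 8 h alamarBlue incubation and fluorescence readout, with EC50 calculated from medium-blank-corrected signals.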

T1 sequence (P27986 whole entry): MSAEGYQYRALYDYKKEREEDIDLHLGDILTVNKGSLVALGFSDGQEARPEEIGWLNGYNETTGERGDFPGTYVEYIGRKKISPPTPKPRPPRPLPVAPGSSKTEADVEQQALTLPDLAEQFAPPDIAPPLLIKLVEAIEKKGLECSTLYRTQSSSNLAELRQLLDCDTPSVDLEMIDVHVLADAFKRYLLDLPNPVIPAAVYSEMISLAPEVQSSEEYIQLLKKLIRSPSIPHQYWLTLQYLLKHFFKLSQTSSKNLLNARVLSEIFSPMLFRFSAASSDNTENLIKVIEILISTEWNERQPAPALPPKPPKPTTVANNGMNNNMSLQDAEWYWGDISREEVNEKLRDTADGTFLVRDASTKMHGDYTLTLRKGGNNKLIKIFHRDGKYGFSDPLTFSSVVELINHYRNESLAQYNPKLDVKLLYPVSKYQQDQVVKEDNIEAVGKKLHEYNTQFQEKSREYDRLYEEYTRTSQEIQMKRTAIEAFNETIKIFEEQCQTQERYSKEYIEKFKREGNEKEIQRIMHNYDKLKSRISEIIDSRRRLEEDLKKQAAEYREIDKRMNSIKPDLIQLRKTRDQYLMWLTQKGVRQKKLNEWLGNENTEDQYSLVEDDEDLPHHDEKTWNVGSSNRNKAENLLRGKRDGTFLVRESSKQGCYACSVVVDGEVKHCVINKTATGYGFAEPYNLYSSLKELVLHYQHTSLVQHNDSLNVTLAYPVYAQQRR
T1 sequence (P42336 whole entry): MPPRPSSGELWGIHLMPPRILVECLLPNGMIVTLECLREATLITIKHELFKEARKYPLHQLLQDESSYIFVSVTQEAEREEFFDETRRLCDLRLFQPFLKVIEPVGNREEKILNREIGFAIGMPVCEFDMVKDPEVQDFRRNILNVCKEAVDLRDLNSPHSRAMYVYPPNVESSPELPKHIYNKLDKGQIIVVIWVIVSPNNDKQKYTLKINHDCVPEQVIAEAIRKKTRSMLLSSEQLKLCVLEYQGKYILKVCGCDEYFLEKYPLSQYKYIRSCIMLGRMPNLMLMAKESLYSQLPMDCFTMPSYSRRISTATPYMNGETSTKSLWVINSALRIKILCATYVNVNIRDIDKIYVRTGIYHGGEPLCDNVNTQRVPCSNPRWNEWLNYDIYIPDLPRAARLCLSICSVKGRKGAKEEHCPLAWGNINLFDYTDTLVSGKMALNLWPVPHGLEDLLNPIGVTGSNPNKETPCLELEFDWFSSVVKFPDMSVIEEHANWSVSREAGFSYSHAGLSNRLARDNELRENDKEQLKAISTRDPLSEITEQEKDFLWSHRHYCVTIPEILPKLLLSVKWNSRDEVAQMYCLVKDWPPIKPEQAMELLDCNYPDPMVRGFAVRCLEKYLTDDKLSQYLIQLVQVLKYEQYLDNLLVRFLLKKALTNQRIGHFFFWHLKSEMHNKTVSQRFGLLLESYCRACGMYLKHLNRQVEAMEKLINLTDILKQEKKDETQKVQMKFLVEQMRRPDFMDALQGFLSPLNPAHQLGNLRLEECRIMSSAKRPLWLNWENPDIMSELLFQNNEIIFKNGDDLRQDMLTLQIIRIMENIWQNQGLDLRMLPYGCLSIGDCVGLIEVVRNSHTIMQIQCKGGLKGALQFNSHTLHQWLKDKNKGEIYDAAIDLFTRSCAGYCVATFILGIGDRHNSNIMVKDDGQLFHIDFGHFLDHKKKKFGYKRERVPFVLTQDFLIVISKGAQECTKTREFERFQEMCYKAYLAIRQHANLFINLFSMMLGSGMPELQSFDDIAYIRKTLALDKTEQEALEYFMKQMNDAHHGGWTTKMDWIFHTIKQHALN

| SMILES | EC50 [1] | EC50 [2] | EC50 [3] | IC50 [4] | EC50 [5] | EC50 [6] |
| --- | --- | --- | --- | --- | --- | --- |
| COc1ncc(C#Cc2c(C)ncnc2-c2ccnc(C)c2)cc1NS(=O)(=O)c1ccc(F)cc1F [Example 44, 2,4-Difluoro-N-{2-methoxy-5-[4-methyl-6-(2-methyl-pyridin-4-yl)-pyrimidin-5-ylethynyl]-pyridin-3-yl}-benzenesulfonamide] | 3 nM | 37 nM | 121 nM | 0.55 nM | 15 nM | 23 nM |
| COc1ccc(-c2ncnc(C)c2C#Cc2cnc(OC)c(NS(=O)(=O)c3ccc(F)cc3F)c2)cc1OC [Example 45, N-{5-[4-(3,4-Dimethoxy-phenyl)-6-methyl-pyrimidin-5-ylethynyl]-2-methoxy-pyridin-3-yl}-2,4-difluoro-benzenesulfonamide] | 5 nM | 34 nM | 131 nM | 1 nM | 11 nM | 10 nM |
| COc1ncc(C#Cc2c(C)ncnc2-c2ccc(C(=O)N3CCN(C)CC3)c(F)c2)cc1NS(=O)(=O)c1ccc(F)cc1F [Example 46, 2,4-Difluoro-N-(5-{4-[3-fluoro-4-(4-methyl-piperazine-1-carbonyl)-phenyl]-6-methyl-pyrimidin-5-ylethynyl}-2-methoxy-pyridin-3-yl)-benzenesulfonamide] | 5 nM | 22 nM | 38 nM | 0.67 nM | 8 nM | 9 nM |
| COc1ncc(C#Cc2c(C)ncnc2-c2ccc(C)nc2)cc1NS(=O)(=O)c1ccc(F)cc1F [Example 47, 2,4-Difluoro-N-{2-methoxy-5-[4-methyl-6-(6-methyl-pyridin-3-yl)-pyrimidin-5-ylethynyl]-pyridin-3-yl}-benzenesulfonamide] | 18 nM | 29 nM | 70 nM | 0.74 nM | 7 nM | 43 nM |
| CCc1ncnc(-c2ccc(CNC(=O)OC(C)(C)C)nc2)c1C#Cc1cnc(C)c(NS(=O)(=O)c2ccc(F)cc2F)c1 [Example 48, (5-{5-[5-(2,4-Difluoro-benzenesulfonylamino)-6-methyl-pyridin-3-ylethynyl]-6-ethyl-pyrimidin-4-yl}-pyridin-2-ylmethyl)-carbamic acid tert-butyl ester] | 3 nM | 89 nM | 89 nM | 0.42 nM | 63 nM | 26 nM |
| CCc1ncnc(-c2ccc(CNC(=O)OC(C)(C)C)nc2)c1C#Cc1cnc(C)c(NS(=O)(=O)c2ccccc2C(F)(F)F)c1 [Example 49, (5-{6-Ethyl-5-[6-methyl-5-(2-trifluoromethyl-benzenesulfonylamino)-pyridin-3-ylethynyl]-pyrimidin-4-yl}-pyridin-2-ylmethyl)-carbamic acid tert-butyl ester] | 57 nM | 169 nM | 241 nM | 2 nM | 120 nM | 207 nM |
| CCc1ncnc(-c2ccc(CNC(=O)OC(C)(C)C)nc2)c1C#Cc1cnc(C)c(NS(=O)(=O)c2ccccc2)c1 [Example 50, {5-[5-(5-Benzene-sulfonylamino-6-methyl-pyridin-3-ylethynyl)-6-ethyl-pyrimidin-4-yl]-pyridin-2-ylmethyl}-carbamic acid tert-butyl ester] | 27 nM | 115 nM | 104 nM | 0.43 nM | 104 nM | 102 nM |
| CCc1ncnc(-c2ccccc2)c1C#Cc1cnc(C)c(NS(C)(=O)=O)c1 [Example 52, N-[5-(4-Ethyl-6-phenyl-pyrimidin-5-ylethynyl)-2-methyl-pyridin-3-yl]-methanesulfonamide] | 154 nM | 452 nM | 1020 nM | 3 nM | 1210 nM | 520 nM |
| CCc1ncnc(-c2cccc(C#N)c2)c1C#Cc1cnc(C)c(NS(C)(=O)=O)c1 [Example 55, N-{5-[4-(3-Cyano-phenyl)-6-ethyl-pyrimidin-5-ylethynyl]-2-methyl-pyridin-3-yl}-methanesulfonamide] | 126 nM | 317 nM | 609 nM | 3 nM | 945 nM | 302 nM |
| CCc1ncnc(-c2ccccc2F)c1C#Cc1cnc(C)c(NS(C)(=O)=O)c1 [Example 57, N-{5-[4-Ethyl-6-(2-fluoro-phenyl)-pyrimidin-5-ylethynyl]-2-methyl-pyridin-3-yl}-methanesulfonamide] | 541 nM | 1620 nM | 2660 nM | 8 nM | 3140 nM | 1080 nM |
| CCc1ncnc(-c2cccc(F)c2)c1C#Cc1cnc(C)c(NS(C)(=O)=O)c1 [Example 61, N-{5-[4-Ethyl-6-(3-fluoro-phenyl)-pyrimidin-5-ylethynyl]-2-methyl-pyridin-3-yl}-methanesulfonamide] | 454 nM | 420 nM | 321 nM | 1 nM | 400 nM | 693 nM |
| CCc1ncnc(-c2ccccc2OC)c1C#Cc1cnc(C)c(NS(C)(=O)=O)c1 [Example 62, N-{5-[4-Ethyl-6-(2-methoxy-phenyl)-pyrimidin-5-ylethynyl]-2-methyl-pyridin-3-yl}-methanesulfonamide] | 1420 nM | 2900 nM | 25000 nM | 12 nM | 2760 nM | ≥ 10000 nM |
| CCc1ncnc(-c2ccc(F)cc2F)c1C#Cc1cnc(C)c(NS(C)(=O)=O)c1 [Example 63, N-{5-[4-(2,4-Difluoro-phenyl)-6-ethyl-pyrimidin-5-ylethynyl]-2-methyl-pyridin-3-yl}-methanesulfonamide] | 734 nM | 1180 nM | 1880 nM | 4 nM | 1110 nM | 1540 nM |
| CCc1ncnc(-c2cccc(OC(C)C)c2)c1C#Cc1cnc(C)c(NS(C)(=O)=O)c1 [Example 64, N-{5-[4-Ethyl-6-(3-isopropoxy-phenyl)-pyrimidin-5-ylethynyl]-2-methyl-pyridin-3-yl}-methanesulfonamide] | 309 nM | 621 nM | 888 nM | 2 nM | 606 nM | 615 nM |
| CCc1ncnc(-c2cccc(C(F)(F)F)c2F)c1C#Cc1cnc(C)c(NS(C)(=O)=O)c1 [Example 70, N-{5-[4-Ethyl-6-(2-fluoro-3-trifluoromethyl-phenyl)-pyrimidin-5-ylethynyl]-2-methyl-pyridin-3-yl}-methanesulfonamide] | 374 nM | 1270 nM | 2350 nM | 20 nM | 1180 nM | 1570 nM |
| CCc1ncnc(-c2ccc(OC)cc2F)c1C#Cc1cnc(C)c(NS(C)(=O)=O)c1 [Example 71, N-{5-[4-Ethyl-6-(2-fluoro-4-methoxy-phenyl)-pyrimidin-5-ylethynyl]-2-methyl-pyridin-3-yl}-methanesulfonamide] | 389 nM | 558 nM | 1300 nM | 9 nM | 683 nM | 1020 nM |
| CCc1ncnc(-c2ccc(C(=O)N(C)C)cc2F)c1C#Cc1cnc(C)c(NS(C)(=O)=O)c1 [Example 72, 4-[6-Ethyl-5-(5-methanesulfonylamino-6-methyl-pyridin-3-ylethynyl)-pyrimidin-4-yl]-3-fluoro-N,N-dimethyl-benzamide] | 679 nM | 746 nM | 1580 nM | 8 nM | 3030 nM | 1950 nM |
